Assay results published in article PMC9965906, “Discovery and Development Strategies for SARS-CoV-2 NSP3 Macrodomain Inhibitors” (Pathogens, 2023).
Several values for one entry are separate records, joined by “and”; a condition that tells them apart may be missing. Identical values can stand only once. Counter-ions that a name gives are not always drawn. Like-named read-outs stand apart in the source and are kept apart here.

Target: SARS-CoV-2 NSP3 Mac1 (Severe acute respiratory syndrome coronavirus 2, UniProt P0DTD1)
Assay: biochemical
Assay type: binding
Conditions: for inhibition at 25 µM: BioAscent virtual screening hit compounds; for inhibition at 125 µM: read-out: Inhibition at top concentration of 125 µM (%); for inhibitory activity in FDA-approved library screen: primary screen at the set screening concentration; for NSP3 Mac1 inhibition at 50 µM (%) / inhibition at 50 µM: FDA-approved compound library primary screen, single shot; for Hill slope: confirmatory HTRF assays
[1] = MIDAS hit compounds and analogues, 125 µM
[2] = MIDAS hit compounds and analogues, top concentration 125 µM, 8-point 1:1 dilution, duplicate
[3] = MIDAS hit compounds and analogues, top concentration 125 µM, 8-point 1:1 dilution, duplicate, read-out: IC50

Row | SMILES | inhibition at 125 µM [1] [%] | IC50 in µM [2] | further results
1 | Cc1cccn2c(=O)c3cc(C(=O)O)n(C)c3nc12 [BCC0049478, Cc1cccn2c(=O)c3cc(C(=O)O)n(C)c3nc12] | – | – | inhibition at 25 µM (duplicate): 30.6%
2 | CCn1ncc2c(C(=O)N(C)Cc3ccccc3C)cc(-c3cccs3)nc21 [IAL-MD0042, CCN1N=CC=2C(=CC(=NC12)C3=CC=CS3)C(=O)N(C)CC=4C=CC=CC4C] | 20.9 | Not measurable | –
3 | N[C@@H](C(=O)N[C@@H]1C(=O)N2C(C(=O)O)=C(Cl)CS[C@H]12)c1ccccc1 [cefaclor, reference compound] | – | – | inhibitory activity in FDA-approved library screen: could yet not measure any inhibitory activity
4 | O=C(O)CCCC[C@@H]1SC[C@@H]2NC(=O)N[C@@H]21 [Biotin, reference compound] | – | – | NSP3 Mac1 inhibition at 50 µM (%): 107%; inhibition at 50 µM: 108%
5 | CC1CN(C(=O)c2cc(-c3cccs3)nc3c2cnn3C(C)C)C(C)(C)CO1 (centres unmarked) [IAL-MD0087, CC(C)N1N=CC=2C(=CC(=NC12)C3=CC=CS3)C(=O)N4CC(C)OCC4(C)C] | 22.3 | Not measurable | –
6 | CC(C)n1ncc2c(C(=O)N(C)Cc3ccc4c(c3)OCO4)cc(-c3cccs3)nc21 [IAL-MD0065, CC(C)N1N=CC=2C(=CC(=NC12)C3=CC=CS3)C(=O)N(C)CC=4C=CC=5OCOC5C4] | 9.5 | Not measurable | –
7 | O=C(O)c1cc(O)c2c(c1)[C@H]([C@H]1c3cc(C(=O)O)cc(O)c3C(=O)c3c(O[C@@H]4O[C@H](CO)[C@@H](O)[C@H](O)[C@H]4O)cccc31)c1cccc(O[C@@H]3O[C@H](CO)[C@@H](O)[C@H](O)[C@H]3O)c1C2=O [Sennoside A, reference compound] | – | – | NSP3 Mac1 inhibition at 50 µM (%): 112%; inhibition at 50 µM: 112%
8 | CCCNC(=O)c1ccc(-c2ccnc3c2ccn3C)o1 [IAL-MD0148, O=C(NCCC)C1=CC=C(C2=C3C(N(C)C=C3)=NC=C2)O1] | – | – | Inhibition at top concentration of 125 µM (%) [1]: Not measurable due to compound precipitation; IC50 [3]: 7.7 µM
9 | Nc1ccc(S(=O)(=O)[O-])cc1.Nc1ccc(S(=O)(=O)[O-])cc1.O.O.O.O.[Zn+2] [Sulfanilate zinc, reference compound] | – | – | NSP3 Mac1 inhibition at 50 µM (%): 44.2%
10 | CN(C)C(=O)c1cncc(-c2ccnc3c2ccn3C)n1 [IAL-MD0135, O=C(C1=NC(C2=C3C(N(C)C=C3)=NC=C2)=CN=C1)N(C)C] | 18.3 | Not measurable | –
11 | CC(C)n1ncc2c(C(=O)N3CCCCC3C(=O)N3CCCC3)cc(-c3cccs3)nc21 (centres unmarked) [IAL-MD0080, CC(C)N1N=CC=2C(=CC(=NC12)C3=CC=CS3)C(=O)N4CCCCC4C(=O)N5CCCC5] | 45.9 | Not measurable | –
12 | COc1ccc(-c2cc(C(=O)Nc3ccc(S(C)(=O)=O)cc3)c3ccccc3n2)cc1 [IAL-MD0058, COC=1C=CC(=CC1)C=2C=C(C(=O)NC=3C=CC(=CC3)S(=O)(=O)C)C=4C=CC=CC4N2] | 18.7 | Not measurable | –
13 | COc1ccc(-c2cc(C(=O)O)c3ccccc3n2)cc1OC [IAL-MD0094, COC=1C=CC(=CC1OC)C=2C=C(C(=O)O)C=3C=CC=CC3N2] | 31.9 | Not measurable | –
14 | CCCCNC(=O)c1ccc(-c2cc(N)nc3[nH]ccc23)o1 [IAL-MD0134, O=C(NCCCC)C1=CC=C(C2=C3C(NC=C3)=NC(N)=C2)O1] | 77.8 | – | IC50 [3]: 25 µM and 25.3 µM
15 | Cn1ccc2c(-c3cc(C(=O)N4CCCC4)ccn3)ccnc21 [IAL-MD0139, O=C(C1=CC(C2=C3C(N(C)C=C3)=NC=C2)=NC=C1)N4CCCC4] | 21.7 | Not measurable | –
16 | Nc1ncnc2[nH]cnc12 [adenine, reference compound] | – | – | inhibitory activity in FDA-approved library screen: did not show any inhibitory activity

Row | SMILES | inhibition at 125 µM [1] [%] | IC50 in µM [2] | further results
17 | COc1ccc(-c2cc(C(=O)O)c3ccc(OC)cc3n2)cc1 [IAL-MD0030, COC=1C=CC(=CC1)C=2C=C(C(=O)O)C=3C=CC(OC)=CC3N2] | 44.7 | Not measurable | –
18 | CCn1ncc2c(C(=O)Nc3ncc(C)s3)cc(-c3cccs3)nc21 [IAL-MD0026, CCN1N=CC=2C(=CC(=NC12)C3=CC=CS3)C(=O)NC4=NC=C(C)S4] | 11.1 | Not measurable | –
19 | CC(C)(O/N=C(\C(=O)N[C@@H]1C(=O)N2C(C(=O)[O-])=C(C[n+]3ccccc3)CS[C@H]12)c1csc(N)n1)C(=O)O [Ceftazidime, reference compound] | – | – | NSP3 Mac1 inhibition at 50 µM (%): 108%; inhibition at 50 µM: 108%; Hill slope (FDA-approved hit compounds): 1.38; IC50 (IC50): 37.1 µM and 37 µM
20 | N.N.O=C([O-])C1(C(=O)[O-])CCC1.[Pt+2] [Carboplatin, reference compound] | – | – | NSP3 Mac1 inhibition at 50 µM (%): 97.3%; outcome of dose-response titration (FDA-approved hit compounds, top concentration 125 µM): strong assay interference
21 | COc1ccc(-c2cc(C(=O)Nc3cccc(S(=O)(=O)N(C)C)c3)c3ccccc3n2)cc1 [IAL-MD0101, COC=1C=CC(=CC1)C=2C=C(C(=O)NC=3C=CC=C(C3)S(=O)(=O)N(C)C)C=4C=CC=CC4N2] | 25.2 | Not measurable | –
22 | CC(C)n1ncc2c(C(=O)N3CCNC(=O)C3)cc(-c3ccc4c(c3)OCCO4)nc21 [IAL-MD0044, CC(C)N1N=CC=2C(=CC(=NC12)C=3C=CC=4OCCOC4C3)C(=O)N5CCNC(=O)C5] | 30.2 | Not measurable | –
23 | CN1CCCN=C1/C=C/c1cccc(O)c1 [Oxantel pamoate, reference compound] | – | – | IC50: 11.7 µM and 12 µM; NSP3 Mac1 inhibition at 50 µM (%): 56%; inhibition at 50 µM: 55.9%; Hill slope (FDA-approved hit compounds): 1.34
24 | CC(CNC(=O)c1cc(-c2cccs2)nc2c1cnn2C(C)C)N1CCCCC1 (centres unmarked) [IAL-MD0108, CC(C)N1N=CC=2C(=CC(=NC12)C3=CC=CS3)C(=O)NCC(C)N4CCCCC4] | 60.5 | – | IC50 [3]: 68 µM and 67.8 µM
25 | CC1(C(=O)N2CCCC(c3c[nH]c4ncccc34)C2)CCC(=O)NC1 (centres unmarked) [IAL-MD0114, CC1(CCC(=O)NC1)C(=O)N2CCCC(C2)C3=CNC=4N=CC=CC34] | 13.4 | Not measurable | –
26 | Nc1ccc2c(c1)C/C(=C/c1ccco1)C2=O [BCC0121661, Nc1ccc2c(c1)C/C(=C/c1ccco1)C2=O] | – | – | inhibition at 25 µM (duplicate): 56.9%
27 | COc1ccc(-c2cc(C(=O)NC3CC3)c3ccccc3n2)cc1 [IAL-MD0103, COC=1C=CC(=CC1)C=2C=C(C(=O)NC3CC3)C=4C=CC=CC4N2] | 38.4 | Not measurable | –
28 | COc1ccc(-c2cc(C(=O)N(C)C)c3ccccc3n2)cc1 [IAL-MD0088, COC=1C=CC(=CC1)C=2C=C(C(=O)N(C)C)C=3C=CC=CC3N2] | 79.4 | – | IC50 [3]: 24 µM
29 | O=C1c2c(O)ccc(O)c2C(=O)c2c(NCCNCCO)ccc(NCCNCCO)c21 [Mitoxantrone hydrochloride, reference compound] | – | – | IC50 (FDA-approved hit compounds re-supplied, top concentration 125 µM, read-out: IC50): 14.1 µM and ~14 µM
30 | CCN(C)C(=O)c1ccc(-c2ccnc3c2ccn3C)nc1 [IAL-MD0144, O=C(N(CC)C)C1=CN=C(C2=C3C(N(C)C=C3)=NC=C2)C=C1] | 23.8 | Not measurable | –
31 | CO/N=C(\C(=O)N[C@@H]1C(=O)N2C(C(=O)[O-])=C(C[N+]3(C)CCCC3)CS[C@H]12)c1csc(N)n1.Cl [Cefepime hydrochloride, reference compound] | – | – | NSP3 Mac1 inhibition at 50 µM (%): 42.1%
32 | Cc1ccc(-c2cc(C(=O)N3CCOCC3)c3cnn(C(C)C)c3n2)s1 [IAL-MD0051, CC(C)N1N=CC=2C(=CC(=NC12)C3=CC=C(C)S3)C(=O)N4CCOCC4] | 59.8 | – | IC50 [3]: 12.6 µM; assay effects in dose-response titration (MIDAS hits and analogues, higher compound concentrations): secondary assay effects at higher concentrations
